# Experimental data taken from patent US20260217698A1 (BEYANG THERAPEUTICS CO., LTD., priority 2022, published 2026).
# Assays:
# VEGFR1 = biological target: T1, VEGFR1 (Homo sapiens, UniProt P17948); experiment: Kinase inhibition, Mobility Shift Assay/IMAP, VEGFR1; assay type: biochemical
# T1 construct: purchased Invitrogen PR6731B
# Excerpt: (§1) This assay directly monitored the ability of compounds to inhibit kinase phosphorylation by measuring non-phosphorylated and phosphorylated substrates in kinase reactions by using Mobility Shift Assays/IMAP™ analysis.
# (§2) Read the conversion ratio data on CaliperEZ Reader II. Convert conversion rates into inhibition ratio data.
# (§3) “Min” indicates the readout of the control well without the addition of enzymes; and “Max” indicates the readout of the control well with the addition of DMSO Fit IC50 values with XL Fit excel add-in version […].
# (§4) X indicates the log value of compound concentration, and Y indicates the inhibition ratio (% inhibition).
# EGFR = biological target: T2, EGFR (Homo sapiens, UniProt P00533); experiment: Kinase inhibition, Mobility Shift Assay/IMAP, EGFR; assay type: biochemical
# T2 construct: purchased Carna 08-115
# Excerpt: as §1, §2, §3, §4
# melanin = experiment: Binding capacity of compounds to melanin; assay type: in vitro ADME, cuttlefish (Sepia officinalis); conditions: cuttlefish (Sepia officinalis), melanin suspension (1 mg/mL); 1 mg/mL melanin in PBS pH 7.4, 2 μM compound, 2 h at 37° C.; read-out: Fu % (percentage of free drug)
# Excerpt: Pigmented eye tissues contain melanin in intracellular melanosomes. Drugs bind to melanin to varying degrees, ranging from non-binding to extensive binding. Therefore, melanin binding is an important feature that affects drug delivery and biodistribution in the eye. The binding capacity of the compound to the melanin must be considered in the development of ophthalmic drugs.
# Melanin was derived from the melanin of cuttlefish (Sepia officinalis) and was commercially available from Sigma Aldrich (St Louis, MO).
# First, prepare 1 mg/mL melanin suspension with PBS (pH 7.4). As a washing step for the matrix, centrifuge the suspended particles for 5 min at 3000 rpm. Resuspend the resulting particles in a fresh PBS buffer, heat to 37° C. over continuous shaking and incubate it for 1 h. Accurately pipette 2 μL of the test stock solution (0.1 mM) into 98 μL of melanin suspension (1 mg/mL) to achieve a final incubation concentration of 2 μM. Similarly, accurately pipette 2 μL of the stock solution (0.1 mM) to 98 μL of PBS buffer (containing 0.1% BSA) as a blank control sample. Incubate the samples in a shaker (80-90 rpm) for 2 h at 37° C. Then, centrifuge the samples at room temperature. Pipette 50 μL of the supernatant and add 50 μL of precipitant (containing an internal standard). After protein precipitation of all the above samples, centrifuge the samples to collect the supernatants, dilute the supernatants with water (if necessary) and inject them for analysis. At the same time, measure the positive controls, including the high-binding compounds Sunitinib and chloroquine and the low-binding compound celecoxib. Establish an LC-MS/MS method for determining compound concentrations, and calibrate the peak area ratio of analyte/internal standard (Analyte/AIS) in the measured sample by the dilution factor to take it as an alternative concentration for the sample for data processing. The binding rate (Fb) of a compound in melanin was calculated as: […]
# Ctest was the concentration of the compound in the melanin-incubated sample or the peak area ratio of the test compound to the internal standard. Ccontrol was the concentration of the compound in the blank control sample or the peak area ratio of the test compound to the internal standard. […]
# VEGFR2 = VEGFR2 (Homo sapiens, UniProt P35968); experiment: Kinase inhibition, Mobility Shift Assay/IMAP, VEGFR2; assay type: biochemical; design: purchased Carna 08-191
# Excerpt: as §1, §2, §3, §4
# VEGFR3 = biological target: T3, VEGFR3 (Homo sapiens, UniProt P35916); experiment: Kinase inhibition, Mobility Shift Assay/IMAP, VEGFR3; assay type: biochemical
# T3 construct: purchased Invitrogen PV4129
# Excerpt: as §1, §2, §3, §4
# TIE2 = biological target: T4, TIE2 (Homo sapiens, UniProt Q02763); experiment: Kinase inhibition, Mobility Shift Assay/IMAP, TIE2; assay type: biochemical
# T4 construct: purchased BPS 40270
# Excerpt: as §1, §2, §3, §4
# VEGFR2, sequence (P35968 790-1356 limits assumed): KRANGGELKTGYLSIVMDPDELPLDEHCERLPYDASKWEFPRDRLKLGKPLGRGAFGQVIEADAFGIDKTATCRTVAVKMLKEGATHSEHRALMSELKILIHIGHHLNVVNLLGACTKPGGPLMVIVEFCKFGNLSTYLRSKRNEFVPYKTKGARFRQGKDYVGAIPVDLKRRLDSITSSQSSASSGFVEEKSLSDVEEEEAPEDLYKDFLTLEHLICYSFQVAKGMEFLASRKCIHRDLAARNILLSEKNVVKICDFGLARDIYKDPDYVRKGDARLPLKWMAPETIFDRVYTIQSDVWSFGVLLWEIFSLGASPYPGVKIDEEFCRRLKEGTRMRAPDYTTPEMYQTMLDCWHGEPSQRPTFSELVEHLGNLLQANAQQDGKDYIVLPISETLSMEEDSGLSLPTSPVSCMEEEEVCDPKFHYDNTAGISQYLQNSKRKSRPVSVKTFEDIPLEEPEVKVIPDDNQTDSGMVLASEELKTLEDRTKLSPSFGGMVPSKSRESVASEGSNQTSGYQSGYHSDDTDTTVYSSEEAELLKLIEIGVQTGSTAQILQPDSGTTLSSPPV
# T4 sequence (Q02763 23-1124): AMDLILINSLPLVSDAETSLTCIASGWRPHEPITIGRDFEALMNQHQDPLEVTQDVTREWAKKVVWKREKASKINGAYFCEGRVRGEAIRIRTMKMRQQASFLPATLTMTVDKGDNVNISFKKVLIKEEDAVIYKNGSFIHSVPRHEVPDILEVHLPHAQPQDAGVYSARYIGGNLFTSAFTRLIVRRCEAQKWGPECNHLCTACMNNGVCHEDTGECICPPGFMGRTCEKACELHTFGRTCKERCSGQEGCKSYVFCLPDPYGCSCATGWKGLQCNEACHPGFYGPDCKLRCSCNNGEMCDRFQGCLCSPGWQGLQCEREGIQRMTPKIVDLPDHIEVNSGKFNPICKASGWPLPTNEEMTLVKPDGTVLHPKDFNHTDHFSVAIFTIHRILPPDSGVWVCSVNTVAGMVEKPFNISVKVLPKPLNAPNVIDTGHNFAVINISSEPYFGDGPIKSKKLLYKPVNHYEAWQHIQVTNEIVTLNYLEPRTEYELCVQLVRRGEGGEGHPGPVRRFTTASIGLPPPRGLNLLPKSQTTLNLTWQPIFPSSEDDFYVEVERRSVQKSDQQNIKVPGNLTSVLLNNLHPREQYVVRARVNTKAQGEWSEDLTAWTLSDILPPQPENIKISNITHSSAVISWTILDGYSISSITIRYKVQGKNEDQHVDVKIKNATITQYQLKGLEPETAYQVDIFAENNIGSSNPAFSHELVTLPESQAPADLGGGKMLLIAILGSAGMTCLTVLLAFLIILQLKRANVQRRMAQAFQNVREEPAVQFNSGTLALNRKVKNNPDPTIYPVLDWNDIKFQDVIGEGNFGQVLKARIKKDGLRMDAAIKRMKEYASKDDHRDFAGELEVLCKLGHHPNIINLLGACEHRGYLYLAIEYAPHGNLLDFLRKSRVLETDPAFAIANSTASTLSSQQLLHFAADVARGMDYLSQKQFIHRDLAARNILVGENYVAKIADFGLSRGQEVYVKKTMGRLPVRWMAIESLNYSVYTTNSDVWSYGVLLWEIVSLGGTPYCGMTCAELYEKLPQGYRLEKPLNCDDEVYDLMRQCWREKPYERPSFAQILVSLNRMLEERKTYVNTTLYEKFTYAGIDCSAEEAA
# T2 sequence (P00533 669-1210 limits assumed): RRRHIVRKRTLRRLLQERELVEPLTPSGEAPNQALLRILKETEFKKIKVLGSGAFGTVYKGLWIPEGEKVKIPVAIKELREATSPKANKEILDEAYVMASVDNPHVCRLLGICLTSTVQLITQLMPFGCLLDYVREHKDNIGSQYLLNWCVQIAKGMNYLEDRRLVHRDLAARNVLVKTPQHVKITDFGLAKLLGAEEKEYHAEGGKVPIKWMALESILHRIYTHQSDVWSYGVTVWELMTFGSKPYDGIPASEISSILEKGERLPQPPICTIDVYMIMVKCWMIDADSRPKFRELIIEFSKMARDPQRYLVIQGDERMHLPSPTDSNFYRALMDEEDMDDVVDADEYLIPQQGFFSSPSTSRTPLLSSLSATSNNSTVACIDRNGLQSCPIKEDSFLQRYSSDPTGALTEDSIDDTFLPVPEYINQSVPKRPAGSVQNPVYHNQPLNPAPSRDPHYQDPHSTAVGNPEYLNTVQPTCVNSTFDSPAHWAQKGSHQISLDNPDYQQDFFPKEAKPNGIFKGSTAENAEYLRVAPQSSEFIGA
# T1 sequence (P17948 27-1338): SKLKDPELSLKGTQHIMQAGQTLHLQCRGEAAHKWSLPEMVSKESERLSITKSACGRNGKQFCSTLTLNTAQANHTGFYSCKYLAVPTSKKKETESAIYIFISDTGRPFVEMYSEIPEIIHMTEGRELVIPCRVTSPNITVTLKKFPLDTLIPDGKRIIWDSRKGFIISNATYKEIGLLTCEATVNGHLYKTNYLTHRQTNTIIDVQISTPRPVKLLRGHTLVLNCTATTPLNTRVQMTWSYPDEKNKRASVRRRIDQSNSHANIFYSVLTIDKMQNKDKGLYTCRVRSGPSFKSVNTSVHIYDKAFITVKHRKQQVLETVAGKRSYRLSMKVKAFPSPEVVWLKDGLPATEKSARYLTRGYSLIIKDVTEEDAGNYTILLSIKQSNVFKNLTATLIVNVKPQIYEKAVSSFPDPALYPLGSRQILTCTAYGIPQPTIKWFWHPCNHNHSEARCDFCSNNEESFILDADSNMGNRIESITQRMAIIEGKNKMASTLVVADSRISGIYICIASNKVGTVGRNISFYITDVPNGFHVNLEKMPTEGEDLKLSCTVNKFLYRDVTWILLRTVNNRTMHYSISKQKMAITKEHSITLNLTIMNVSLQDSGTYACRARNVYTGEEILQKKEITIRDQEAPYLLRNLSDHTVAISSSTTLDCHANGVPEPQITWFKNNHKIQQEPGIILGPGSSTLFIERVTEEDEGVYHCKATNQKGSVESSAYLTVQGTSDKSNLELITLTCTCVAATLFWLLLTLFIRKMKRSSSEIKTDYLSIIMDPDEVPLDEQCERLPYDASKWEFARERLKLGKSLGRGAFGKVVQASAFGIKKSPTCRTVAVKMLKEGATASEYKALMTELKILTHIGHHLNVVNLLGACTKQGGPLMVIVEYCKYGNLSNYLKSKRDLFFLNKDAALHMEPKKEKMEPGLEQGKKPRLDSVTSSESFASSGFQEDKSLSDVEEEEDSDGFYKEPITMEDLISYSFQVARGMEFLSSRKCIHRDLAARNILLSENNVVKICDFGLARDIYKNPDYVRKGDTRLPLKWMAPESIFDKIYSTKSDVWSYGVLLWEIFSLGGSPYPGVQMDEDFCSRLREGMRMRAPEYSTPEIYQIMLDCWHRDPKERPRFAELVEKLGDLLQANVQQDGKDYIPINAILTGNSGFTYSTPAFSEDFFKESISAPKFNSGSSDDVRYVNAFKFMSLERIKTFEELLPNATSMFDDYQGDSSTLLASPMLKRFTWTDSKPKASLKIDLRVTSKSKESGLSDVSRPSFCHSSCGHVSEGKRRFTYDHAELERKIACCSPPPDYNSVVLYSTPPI
# T3 sequence (P35916 25-1363): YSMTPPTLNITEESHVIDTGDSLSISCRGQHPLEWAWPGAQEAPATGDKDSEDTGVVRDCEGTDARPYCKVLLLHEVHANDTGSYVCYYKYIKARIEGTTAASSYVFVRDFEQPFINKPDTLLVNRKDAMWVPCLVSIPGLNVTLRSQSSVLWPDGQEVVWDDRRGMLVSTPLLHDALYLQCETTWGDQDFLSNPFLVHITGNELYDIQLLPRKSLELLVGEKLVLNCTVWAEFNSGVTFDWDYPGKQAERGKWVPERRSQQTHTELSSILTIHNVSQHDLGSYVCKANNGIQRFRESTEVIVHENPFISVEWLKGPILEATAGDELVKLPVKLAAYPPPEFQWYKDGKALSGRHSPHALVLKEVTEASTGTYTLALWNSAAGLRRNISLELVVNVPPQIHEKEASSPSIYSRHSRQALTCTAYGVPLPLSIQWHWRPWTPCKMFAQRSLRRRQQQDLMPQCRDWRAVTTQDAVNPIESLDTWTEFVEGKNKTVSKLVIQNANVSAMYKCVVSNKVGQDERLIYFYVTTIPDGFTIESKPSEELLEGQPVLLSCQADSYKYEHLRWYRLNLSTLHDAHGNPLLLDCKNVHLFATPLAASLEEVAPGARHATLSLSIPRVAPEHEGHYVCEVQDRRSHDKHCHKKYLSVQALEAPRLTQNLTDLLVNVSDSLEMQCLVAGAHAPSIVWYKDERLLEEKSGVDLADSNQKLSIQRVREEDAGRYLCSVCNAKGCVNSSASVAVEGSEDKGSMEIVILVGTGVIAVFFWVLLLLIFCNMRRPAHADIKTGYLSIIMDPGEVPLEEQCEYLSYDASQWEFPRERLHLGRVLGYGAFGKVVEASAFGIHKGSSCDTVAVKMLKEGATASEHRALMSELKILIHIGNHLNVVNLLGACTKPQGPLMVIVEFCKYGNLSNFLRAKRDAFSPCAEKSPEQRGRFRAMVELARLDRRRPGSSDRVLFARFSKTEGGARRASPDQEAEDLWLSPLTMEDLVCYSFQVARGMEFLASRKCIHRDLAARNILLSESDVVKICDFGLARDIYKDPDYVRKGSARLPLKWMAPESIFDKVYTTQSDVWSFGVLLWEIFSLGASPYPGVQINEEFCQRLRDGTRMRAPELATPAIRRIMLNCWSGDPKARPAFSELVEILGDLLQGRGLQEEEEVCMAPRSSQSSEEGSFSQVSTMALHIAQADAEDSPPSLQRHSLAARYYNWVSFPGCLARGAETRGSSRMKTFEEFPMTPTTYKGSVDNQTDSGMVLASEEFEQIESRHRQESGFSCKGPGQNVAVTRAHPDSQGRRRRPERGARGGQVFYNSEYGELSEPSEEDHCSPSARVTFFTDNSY
IC50 (VEGFR1) [nM],IC50 (EGFR) [nM],"fraction unbound at 2 h, 2 μM (melanin)",IC50 (VEGFR2) [nM],IC50 (VEGFR3) [nM],IC50 (TIE2) [nM],SMILES
30,> 60000,0.0225,20.9,–,–,"CCNC(=O)c1cccc(COc2nsc(NC(=O)NCCCCN3CCCC3)c2C(N)=O)c1 [Compound T058, 3-((3-(ethylcarbamoyl)benzyl)oxy)-5-(3-(4-(pyrrolidin-1-yl)butyl)ureido)isothiazole-4-carboxamide]"
–,> 60000,0.0871,63,39.1,1000,"COc1cc(COc2nsc(NC(=O)NCCCCN3CCC(F)(F)C3)c2C(N)=O)cc(OC)c1 [Compound T063, 5-(3-(4-(3,3-difluoropyrrolidin-1-yl)butyl)ureido)-3-((3,5-dimethoxybenzyl)oxy)isothiazole-4-carboxamide]"
37.9,> 60000,–,77.8,–,10000,"NC(=O)c1c(OCc2cccc(C(=O)NC3CC3)c2)nsc1NC(=O)NCCN1CCCC1 [Compound T066, 3-((3-(cyclopropylcarbamoyl)benzyl)oxy)-5-(3-(2-(pyrrolidin-1-yl)ethyl)ureido)isothiazole-4-carboxamide]"
–,–,0.031,17.2,–,596,"COc1ccc(F)c(COc2nsc(NC(=O)NCCCCN3CCCC3)c2C(N)=O)c1 [Compound T092, 3-[(2-fluoro-5-methoxy-phenyl)methoxy]-5-(4-pyrrolidin-1-ylbutylcarbamoylamino)isothiazole-4-carboxamide]"
–,> 60000,0.0481,9.1,–,413,"COc1cc(COc2nsc(NC(=O)NCCCCN3CCCC3)c2C(N)=O)c(F)c(OC)c1 [Compound T094, 3-[(2-fluoro-3,5-dimethoxy-phenyl)methoxy]-5-(4-pyrrolidin-1-ylbutylcarbamoylamino)isothiazole-4-carboxamide]"
–,9890,0.0235,5.5,–,142,"CN1CC[C@@H](CCNC(=O)Nc2snc(OCc3cc4c(cc3F)CCO4)c2C(N)=O)C1 [Compound T102, 3-[(5-fluoro-2,3-dihydrobenzofuran-6-yl)methoxy]-5-[2-[(3R)-1-methylpyrrolidin-3-yl]ethylcarbamoylamino]isothiazole-4-carboxamide]"
–,9140,0.0403,8.57,–,124,"COc1ccc(F)c(COc2nsc(NC(=O)NCCCN3CCN(C)CC3)c2C(N)=O)c1F [Compound T107, 3-[(2,6-difluoro-3-methoxy-phenyl)methoxy]-5-[3-(4-methylpiperazin-1-yl)propylcarbamoylamino]isothiazole-4-carboxamide]"
–,–,0.0271,0.72,–,621,"NC(=O)c1c(OCc2cc(C(=O)NC3CC3)ccc2F)nsc1NC(=O)NCCC1CCN(CCF)CC1 [Compound T108, 3-[[5-(cyclopropylcarbamoyl)-2-fluoro-phenyl]methoxy]-5-[2-[1-(2-fluoroethyl)-4-piperidyl]ethylcarbamoylamino]isothiazole-4-carboxamide]"
–,40700,0.0173,47,–,397,"COc1ccc(F)c(COc2nsc(NC(=O)NCCCN3CC[C@H](F)C3)c2C(N)=O)c1F [Compound T120, 3-[(2,6-difluoro-3-methoxy-phenyl)methoxy]-5-[3-[(3S)-3-fluoropyrrolidin-1-yl]propylcarbamoylamino]isothiazole-4-carboxamide]"
–,17200,–,40,–,230,"COc1ccc(F)c(COc2nsc(NC(=O)NCCCN3CC[C@@H](F)C3)c2C(N)=O)c1F [Compound T121, 3-[(2,6-difluoro-3-methoxy-phenyl)methoxy]-5-[3-[(3R)-3-fluoropyrrolidin-1-yl]propylcarbamoylamino]isothiazole-4-carboxamide]"
–,9710,0.0402,13.5,–,161,"COc1ccc(F)c(COc2nsc(NC(=O)NCCCCN3CCC(F)CC3)c2C(N)=O)c1F [Compound T125, 3-[(2,6-difluoro-3-methoxy-phenyl)methoxy]-5-[4-(4-fluoro-1-piperidyl)butylcarbamoylamino]isothiazole-4-carboxamide]"
–,13700,0.0709,41,–,471,"COc1ccc(F)c(COc2nsc(NC(=O)NCCCCN3CCC(F)(F)CC3)c2C(N)=O)c1F [Compound T130, 3-[(2,6-difluoro-3-methoxy-phenyl)methoxy]-5-[4-(4,4-difluoro-1-piperidyl)butylcarbamoylamino]isothiazole-4-carboxamide]"
–,19200,0.0363,14.7,–,163,"COc1ccc(F)c(COc2nsc(NC(=O)NCCCCN3CCOCC3)c2C(N)=O)c1F [Compound T132, 3-[(2,6-difluoro-3-methoxy-phenyl)methoxy]-5-(4-morpholinobutylcarbamoylamino)isothiazole-4-carboxamide]"
–,> 60000,0.02,1.9,–,97,"COc1cc(OC)c(F)c(COc2nsc(NC(=O)NCCCCN3CC[C@@H](O)C3)c2C(N)=O)c1F [Compound T135, 3-[(2,6-difluoro-3,5-dimethoxy-phenyl)methoxy]-5-[4-[(3R)-3-hydroxypyrrolidin-1-yl]butylcarbamoylamino]isothiazole-4-carboxamide]"
–,10100,–,0.41,–,366,"CN1CCC(CCNC(=O)Nc2snc(OCc3cc(C(=O)NC4CC4)ccc3Cl)c2C(N)=O)CC1 [Compound T139, 3-[[2-chloro-5-(cyclopropylcarbamoyl)phenyl]methoxy]-5-[2-(1-methyl-4-piperidyl)ethylcarbamoylamino]isothiazole-4-carboxamide]"
–,26100,–,10.5,–,739,COc1ccc(Cl)c(COc2nsc(NC(=O)NCCCCN3CCCC3)c2C(N)=O)c1F [Compound T146]
–,9840,–,1.05,–,5380,"NC(=O)c1c(OCc2cc(C(=O)NC3CC3)ccc2F)nsc1NC(=O)NCCCN1CCN(C2CC2)CC1 [Compound T158, 3-[[5-(cyclopropylcarbamoyl)-2-fluoro-phenyl]methoxy]-5-[3-(4-cyclopropylpiperazin-1-yl)propylcarbamoylamino]isothiazole-4-carboxamide]"
–,15600,–,0.45,–,1740,"NC(=O)c1c(OCc2cc(C(=O)NC3CC3)ccc2Cl)nsc1NC(=O)NCCCN1CC[C@H](F)C1 [Compound T166, 3-[[2-chloro-5-(cyclopropylcarbamoyl)phenyl]methoxy]-5-[3-[(3S)-3-fluoropyrrolidin-1-yl]propylcarbamoylamino]isothiazole-4-carboxamide]"
–,> 60000,–,16.4,–,> 60000,"CC(C)(C)[Si](C)(C)OCCCNC(=O)Nc1snc(OCc2cc(C(=O)NC3CC3)ccc2F)c1C(N)=O [Compound T169, 5-[3-[tert-butyl(dimethyl)silyl]oxypropylcarbamoylamino]-3-[[5-(cyclopropylcarbamoyl)-2-fluoro-phenyl]methoxy]isothiazole-4-carboxamide]"
